From paper PMC3025922 (BMC Biology, 2010)
Read-outs that look alike come from different tables or passages of the source. Residues, ends and D or L forms follow the SMILES beside them. *: point of attachment. Cbz = O=C(OCc1ccccc1)*

Legend:
[1] = test system: nuclear p27 in LNCaP-S14 cells; format: cell-based, human; conditions: for Z score (aver) / Clasf: primary screening; for Z score (aver): nuclear p27 in LNCaP-S14 cells; for Clasf: S = strong, M = medium, W = weak by Z score
[2] = test system: p27 protein levels in IMR90 cells; experiment: Immunoblot quantification of p27, IMR90; format: cell-based, human; conditions: IMR90, 24 h; SMIPs 40 μM, MG132 20 μM, bortezomib 100 nM
Procedure: (§1) Total cell lysate from cells treated with vehicle (DMSO) or compounds were obtained by incubating cells in lysis buffer (25 mM Tris-HCl pH 7.4, 150 mM NaCl, 0.5% Triton X-100, protease inhibitors) for 15 min at 4°C. The supernatant was collected by centrifugation and the amount of protein was determined with a Bio-Rad protein assay (Bio-Rad) using BSA as standard. Equal amounts of protein were subjected to SDS-PAGE (4%-20% gels, Invitrogen) and transferred to PVDF membranes. The membranes were blocked with TBST (50 mM Tris-HCl pH 7.5, 150 mM NaCl, 0.05% Tween-20) containing 5% non-fat dry milk or bovine serum albumin (BSA) for 1 h at room temperature, followed by incubation in primary antibodies 4°C overnight. Membranes were washed and incubated with secondary antibodies conjugated to HRP (Jackson ImmunoResearch Laboratories) for 1 h at room temperature. Signals were visualized using the ECL Western Blotting Substrate (Pierce Biotechnology, IL, USA) according to the manufacturer's instructions. Membranes were stripped using Restore™ Western Blot Stripping Buffer (Pierce Biotechnology). Films were scanned and quantification of the bands was performed using Image J software http://rsbweb.nih.gov/ij/.

[3] = test system: p21 protein levels in HeLa cells; experiment: Immunoblot quantification of p21, HeLa; format: cell-based, human; conditions: HeLa, 24 h; SMIPs 40 μM, MG132 20 μM, bortezomib 100 nM
Procedure: as §1

[4] = test system: p21 protein levels in DU145 cells; experiment: Immunoblot quantification of p21, DU145; format: cell-based, human; conditions: DU145, 24 h; SMIPs 40 μM, MG132 20 μM, bortezomib 100 nM
Procedure: as §1

[5] = test system: p27 protein levels in PC3 cells; experiment: Immunoblot quantification of p27, PC3; format: cell-based, human; conditions: PC3, 24 h; SMIPs 40 μM, MG132 20 μM, bortezomib 100 nM
Procedure: as §1

[6] = test system: p21 protein levels in PC3 cells; experiment: Immunoblot quantification of p21, PC3; format: cell-based, human; conditions: PC3, 24 h; SMIPs 40 μM, MG132 20 μM, bortezomib 100 nM
Procedure: as §1

[7] = test system: p27 protein levels in DU145 cells; experiment: Immunoblot quantification of p27, DU145; format: cell-based, human; conditions: DU145, 24 h; SMIPs 40 μM, MG132 20 μM, bortezomib 100 nM
Procedure: as §1

[8] = test system: p27 protein levels in LNCaP-S14 cells; experiment: Immunoblot quantification of p27, LNCaP-S14; format: cell-based, human; conditions: LNCaP-S14, 24 h; SMIPs 40 μM, MG132 20 μM, bortezomib 100 nM
Procedure: as §1

[9] = test system: p21 protein levels in IMR90 cells; experiment: Immunoblot quantification of p21, IMR90; format: cell-based, human; conditions: IMR90, 24 h; SMIPs 40 μM, MG132 20 μM, bortezomib 100 nM
Procedure: as §1

[10] = test system: p27 protein levels in LNCaP cells; experiment: Immunoblot quantification of p27, LNCaP; format: cell-based, human; conditions: LNCaP, 24 h; SMIPs 40 μM, MG132 20 μM, bortezomib 100 nM
Procedure: as §1

[11] = test system: polyubiquitylated proteins in LNCaP-S14 cells; experiment: Anti-ubiquitin immunoblot of total lysate; format: cell-based, human; conditions: LNCaP-S14, SMIPs 20 and 40 μM, MG132 20 μM, bortezomib 100 nM, 24 h
Procedure: as §1

[12] = test system: p27 protein levels in HeLa cells; experiment: Immunoblot quantification of p27, HeLa; format: cell-based, human; conditions: HeLa, 24 h; SMIPs 40 μM, MG132 20 μM, bortezomib 100 nM
Procedure: as §1

LNCaP-S14 cells = experiment: MTT cytotoxicity assay, LNCaP-S14; conditions: Homo sapiens, 72 h, read-out: IC50 (MTT cytotoxicity)
[13] = MTT cytotoxicity assay, IMR90; format: cell-based; conditions: human, IMR90, 0.01 - 40 μM, 72 h
[14] = test system: p21 protein levels in LNCaP cells; experiment: Immunoblot quantification of p21, LNCaP; format: cell-based, human; conditions: LNCaP, 24 h; SMIPs 40 μM, MG132 20 μM
Procedure: as §1

In the case of `O=C1C=C2C=CC3CC2(O1)C1CCCCN31` (stereo not shown) [1570J03], the “Z score (aver)” value [1] is reported as 3.84 and the Clasf [1] is reported as “M (medium (Z score 3-5))”.
In the case of `CCCCCCCCCCCCCCCC[N+](C)(C)CCN(Cc1ccc(OC)cc1)c1ncccn1` [1570J12], the “Z score (aver)” value [1] is reported as 8.18 and the Clasf [1] is reported as “S (strong (Z score > 5))”.
In the case of `CCCC(C(=O)OCCN(CC)CC)(c1ccccc1)c1ccccc1.Cl` [1570K18], the “Z score (aver)” value [1] is reported as 3.31 and the Clasf [1] is reported as “M (medium (Z score 3-5))”.
With `Nc1ncn(C2OC(CO)C(O)C2O)c(=O)n1` (stereo not shown) [1570N13] the “Z score (aver)” value [1] was 7.46 and the Clasf [1] was “S (strong (Z score > 5))”.
With `O=c1cc(-c2ccc(O)c(O)c2)oc2cc(O)cc(O)c12` [1570N21] the “Z score (aver)” value [1] was 3.48 and the Clasf [1] was “M (medium (Z score 3-5))”.
In the case of `CCCCc1ccc2nc(NC(=O)C3=NN(C)C(=O)CC3)sc2c1` [1715B12], the “Z score (aver)” value [1] is reported as 2.67 and the Clasf [1] is reported as “W (weak (Z score 2-3)”.
For `COc1cc(C#N)ccc1OC(=O)Cc1coc2ccc3ccccc3c12` [1715D21], the “Z score (aver)” value [1] was 2.52 and the Clasf [1] was “W (weak (Z score 2-3)”.
In the case of `CC(C)C[C@H](NC(=O)[C@H](Cc1ccccc1)NC(=O)c1cnccn1)B(O)O` [Bortezomib, reference compound], the “p27 protein level (immunoblot, DMSO = 1.0)” value (“p27 protein level” below) [2] is reported as 1.8 ± 0.0, the “p21 protein level (immunoblot, DMSO = 1.0)” value (“p21 protein level” for short) [3] is reported as 2.2 ± 0.8 and the “p21 protein level” value [4] is reported as 2.5 ± 0.4. The “p27 protein level” value [5] was 2.5 ± 1.0, the “p21 protein level” value [6] was 4.7 ± 1.4 and the “p27 protein level” value [7] was 1.7 ± 0.5. For the same molecule, the “p27 protein level” value [8] was 1.8, the “p21 protein level” value [9] was 1.8 ± 0.4 and the “p27 protein level” value [10] was 2.1. The “accumulation of polyubiquitylated proteins” value [11] was “readily seen” and the “p27 protein level” value [12] was 1.3 ± 0.2.
With `CC(C)C[C@@H](C=O)NC(=O)[C@H](CC(C)C)NC(=O)[C@H](CC(C)C)NC(=O)OCc1ccccc1` [MG132, reference compound] (Cbz-Leu-Leu-Leu-aldehyde) the “p27 protein level” value [2] was 0.9 ± 0.5, the “p21 protein level” value [3] was 5.9 ± 1.7 and the “p21 protein level” value [4] was 3.1. The IC50 (LNCaP-S14 cells) was 0.379 µM, the IC50 [13] was 0.445 µM and the “p27 protein level” value [5] was 2.0 ± 1.0. The “p21 protein level” value [6] was 4.1 ± 0.4, the “p27 protein level” value [7] was 2.4 ± 0.1 and the “p21 protein level” value [14] was 2.9. For the same molecule, the “p27 protein level” value [8] was 1.5, the “p27 protein level” value [10] was 1.9 ± 0.1 and the “accumulation of polyubiquitylated proteins” value [11] was “readily seen”. The “p27 protein level” value [12] was 2.2 ± 0.9.
In the case of `C/C=C(/C)C(=O)O[C@H]1C(C)=C2[C@H]([C@@H]1OC(=O)CCCCCCC)[C@@](C)(OC(C)=O)C[C@H](OC(=O)CCC)[C@@]1(O)[C@H]2OC(=O)[C@@]1(C)O` [Thapsigargin, reference compound], the IC50 (LNCaP-S14 cells) is reported as 0.0078 µM, the IC50 [13] is reported as 0.031 µM and the “hit in primary screen (increased percentage of p27 positive cells)” value ([1]; LNCaP-S14, ~5 to 35 μM, 18 h) is reported as “identified”.
For `COC[C@H]1OC(=O)c2coc3c2[C@@]1(C)C1=C(C3=O)[C@@H]2CCC(=O)[C@@]2(C)C[C@H]1OC(C)=O` [Wortmannin, reference compound], the “hit in primary screen (increased percentage of p27 positive cells)” value ([1]; LNCaP-S14, ~5 to 35 μM, 18 h) was “scored positive”.
In the case of `CC[C@@]1(O)C(=O)OCc2c1cc1n(c2=O)Cc2cc3ccccc3nc2-1` [camptothecin, reference compound], the “hit in primary screen (increased percentage of p27 positive cells)” value ([1]; LNCaP-S14, ~5 to 35 μM, 18 h) is reported as “identified”.
For `COc1cc([C@@H]2c3cc4c(cc3[C@@H](O[C@@H]3O[C@@H]5CO[C@@H](C)O[C@H]5[C@H](O)[C@H]3O)[C@H]3COC(=O)[C@H]23)OCO4)cc(OC)c1O` [etoposide, reference compound], the “hit in primary screen (increased percentage of p27 positive cells)” value ([1]; LNCaP-S14, ~5 to 35 μM, 18 h) was “identified”.
With `CO[C@@]12[C@H](COC(N)=O)C3=C(C(=O)C(C)=C(N)C3=O)N1C[C@@H]1N[C@@H]12` [mitomycin C, reference compound] the “hit in primary screen (increased percentage of p27 positive cells)” value [1] was “identified”.
For `CC[C@H](CO)Nc1nc(NCc2ccccc2)c2ncn(C(C)C)c2n1` [roscovitine, reference compound], the “percentage of p27 positive cells” value [1] was “up to 50%”.
